Broadly, the melting point is the temperature of the solid-liquid transition.

`O=C(Nc1ccnn1C1CCN(C/C=C/c2ccc(Cl)cc2)CC1)c1ccnc(Cl)c1` returned a melting point of 69 to 70 °C.
The compound `O=C(Nc1cccnc1C1CCN(C/C=C/c2ccc(Cl)cc2)CC1)c1ccnc(Cl)c1` displayed a melting point of 78 to 80 °C.
To `O=C(Nc1cccnc1C1=CCN(C/C=C/c2ccc(Cl)cc2)CC1)c1ccnc(Cl)c1` belongs 75 to 77 °C.

(Values after US8129534B2, “Chemical compounds” (priority 2004, dated 2012).)
